pIC50: −log10 of the molar value.
Experiments:
[1] = test system: drug-resistant HCT-116 p53−/− colon cancer cells; experiment: Annexin V/PI flow cytometry cell death, HCT-116 p53−/−; type: cell-based; settings: 10 μM pomiferin alone, 24 h, FIGS. 9A & B
Protocol: Cell death is measured using an annexin V staining kit (BD Biosciences, San Jose, Calif., USA). Briefly, drug-resistant HCT-116 p53−/− deficient colon cancer cells are treated with the 10 μM pomiferin in the presence or absence of 5 mM autophagic inhibitor 3-MA or […] calcium chelator BAPTA/AM for 24 h. Cells are then harvested and analysed by multiparametric flow cytometry using FITC-Annexin V and Propidium iodide staining (BD Biosciences, San Jose, Calif., USA) according to the manufacturer's instructions. Flow cytometry is then carried out using a FACSCalibur flow cytometer (BD Biosciences, San Jose, Calif., USA). Data acquisition and analysis is performed with CellQuest (BD Biosciences, San Jose, Calif., USA). Data are obtained from three independent experiments.

[2] = test system: HeLa (human cervical cancer) cells; experiment: MTT cytotoxicity assay, HeLa; type: cell-based; settings: 72 h, 3 days, read-out: Means of IC50
Protocol: (§1) Pomiferin is dissolved in DMSO at a final concentration of 100 mmol/L and stored at −20° C. Cytotoxicity is assessed using the 3-(4,5-dimethylthiazol-2-yl)-2,5-diphenyltetrazolium bromide assay. 4000-8000 HeLa (human cervical cancer), MCF-7 (human breast cancer), HepG2 and Hep3B (human liver cancer), H1299 and A549 (human lung cancer), LNCap (human prostate cancer) and LLC-1 (mouse Lewis lung carcinoma) cells are seeded on 96-well plates per well. After overnight pre-incubation, the cells are exposed to different concentrations of pomiferin ([…]) for 3 days. Subsequently, 10 μL of MTT reagents is added to each well and incubated at 37° C. for 4 hours followed by the addition of 100 μL solubilization buffer (10% SDS in 0.01 mol/L HCl) and overnight incubation. Absorbance at 585 nm is determined from each well the next day. The percentage of cell viability is calculated using the following formula: Cell viability (%)=Cells number treated/Cells number DMSO control×100. Data are obtained from three independent experiments.

[3] = test system: Bax-Bak DKO MEFs; experiment: Annexin V/PI flow cytometry cell death, Bax-Bak DKO MEFs; type: cell-based, mouse; settings: 24 h
Protocol: Cell death is measured using an annexin V staining kit (BD Biosciences, San Jose, Calif., USA). Briefly, Bax-Bak wild-type and Bax-Bak DKO MEFs are treated with the 5 μM pomiferin for 24 h. Cells are then harvested and analysed by multiparametric flow cytometry using FITC-Annexin V and Propidium iodide staining (BD Biosciences, San Jose, Calif., USA) according to the manufacturer's instructions. Flow cytometry is then carried out using a FACSCalibur flow cytometer (BD Biosciences, San Jose, Calif., USA). Data acquisition and analysis is performed with CellQuest (BD Biosciences, San Jose, Calif., USA). Data are obtained from three independent experiments. Cell death is measured using an annexin V staining kit (BD Biosciences, San Jose, Calif., USA). Briefly, Bax-Bak DKO MEFs are treated with the 5 μM pomiferin in the presence or absence of 5 mM autophagic inhibitor 3-MA for 24 h. Cells are then harvested and analysed by multiparametric flow cytometry using FITC-Annexin V and Propidium iodide staining (BD Biosciences, San Jose, Calif., USA) according to the manufacturer's instructions. Flow cytometry is then carried out using a FACSCalibur flow cytometer (BD Biosciences, San Jose, Calif., USA). Data acquisition and analysis is performed with CellQuest (BD Biosciences, San Jose, Calif., USA). Data are obtained from three independent experiments.

[4] = test system: LNCap (human prostate cancer) cells; experiment: MTT cytotoxicity assay, LNCap; type: cell-based; settings: 72 h, 3 days, read-out: Means of IC50
Protocol: as §1

[5] = biological target: T1, Ca2+ ATPase (SERCA1A) (Oryctolagus cuniculus, UniProt P04191); experiment: Measurement of SERCA activity (enzyme-coupled ATPase assay); type: biochemical; settings: rabbit skeletal muscle SR membranes; FIG. 5B
T1 construct: (SERCA1A) is prepared from female rabbit hind leg muscle; from tissue; host or cells: female rabbit hind leg (skeletal) muscle, sarcoplasmic reticulum membranes
Protocol: Purified Ca^2+ ATPase (SERCA1A) is prepared from female rabbit hind leg muscle^27. ATPase activity is determined using the enzyme-coupled method utilizing pyruvate kinase and lactate dehydrogenase as previously described in Michelangeli et al. (1990). All SERCA inhibition data are fitted to the allosteric dose versus effect equation using Fig P (Biosoft):
Activity=minimum activity+(maximum activity−minimum activity)/(1+([I]/IC50)P).

[6] = test system: MCF-7 (human breast cancer) cells; experiment: MTT cytotoxicity assay, MCF-7; type: cell-based; settings: MCF7, 72 h, MCF-7 (Breast), 3 days, read-out: Means of IC50
Protocol: as §1

[7] = test system: caspase-7 deficient (caspase 7KO) mouse embryonic fibroblasts; experiment: MTT cytotoxicity assay, caspase 7KO MEFs; type: cell-based; settings: Fibroblast, 72 h, 3 days, read-out: Means of IC50
Protocol: The test compound of pomiferin is dissolved in DMSO at a final concentration of 100 mmol/L and stored at −20° C. Cytotoxicity is assessed using the 3-(4,5-dimethylthiazol-2-yl)-2,5-diphenyltetrazolium bromide assay as previously described^29. 2500 of caspase wild-type (caspase WT), caspase-3 deficient (caspase 3KO), caspase-7 deficient (caspase 7KO), caspase-3/-7 deficient (caspase 3/7 DKO), caspase-8 deficient (caspase 8KO), Bax-Bak wild-type (Bak-Bak WT) and Bax-Bak double knock out (Bak-Bak DKO) mouse embryonic fibroblasts (MEFs) are seeded on 96-well plates per well. After overnight pre-incubation, the cells are exposed to different concentrations of pomiferin (namely 100, 50, 25, 12.5, 6.25, 3.125, 1.5625, 0.78, 0.39, 0.195, 0.079, 0.039 μmol/L) for 3 days. Subsequently, 10 μL of MTT reagents is added to each well and incubated at 37° C. for 4 hours, followed by the addition of 100 μL solubilization buffer (10% SDS in 0.01 mol/L HCl) and overnight incubation. Absorbance at 585 nm is determined from each well on the following day. The percentage of cell viability is calculated using the following formula: Cell viability (%)=Cells numbertreated/Cells numberDMSO control×100. Data is obtained from three independent experiments.

T1 sequence (P04191 1-994 isoform P04191-2): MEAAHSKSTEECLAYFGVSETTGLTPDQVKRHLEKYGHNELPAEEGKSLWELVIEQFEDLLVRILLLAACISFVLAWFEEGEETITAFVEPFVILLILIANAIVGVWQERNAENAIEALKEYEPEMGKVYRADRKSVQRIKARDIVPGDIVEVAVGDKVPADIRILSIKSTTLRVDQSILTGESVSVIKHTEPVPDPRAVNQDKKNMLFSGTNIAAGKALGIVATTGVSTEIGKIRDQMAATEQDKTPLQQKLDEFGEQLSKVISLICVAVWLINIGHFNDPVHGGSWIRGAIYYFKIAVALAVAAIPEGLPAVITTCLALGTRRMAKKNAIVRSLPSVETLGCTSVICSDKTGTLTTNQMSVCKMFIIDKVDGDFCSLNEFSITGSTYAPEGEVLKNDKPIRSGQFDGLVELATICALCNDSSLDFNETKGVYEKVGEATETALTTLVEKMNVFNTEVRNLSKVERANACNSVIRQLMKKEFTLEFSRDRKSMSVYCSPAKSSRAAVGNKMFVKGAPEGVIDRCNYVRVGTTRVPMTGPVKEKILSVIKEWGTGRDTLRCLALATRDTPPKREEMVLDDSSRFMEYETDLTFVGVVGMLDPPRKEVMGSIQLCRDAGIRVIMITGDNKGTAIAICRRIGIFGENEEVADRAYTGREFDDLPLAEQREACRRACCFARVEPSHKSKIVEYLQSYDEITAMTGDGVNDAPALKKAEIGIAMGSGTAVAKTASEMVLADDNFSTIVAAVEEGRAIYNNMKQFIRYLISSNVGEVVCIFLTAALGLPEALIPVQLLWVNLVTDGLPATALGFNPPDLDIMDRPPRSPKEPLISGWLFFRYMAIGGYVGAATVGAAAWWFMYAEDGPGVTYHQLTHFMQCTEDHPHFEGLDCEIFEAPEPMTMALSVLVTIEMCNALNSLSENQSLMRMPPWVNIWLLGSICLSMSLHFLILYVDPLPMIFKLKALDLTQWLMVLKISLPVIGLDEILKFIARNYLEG

CC(C)=CCc1c2c(c3occ(-c4ccc(O)c(O)c4)c(=O)c3c1O)C=CC(C)(C)O2 [pomiferin]
cell death (in words) [1]: significantly induced cell death | pIC50 [2]: 5.13 | cell death (in words) ([3]; 5 μM pomiferin alone, Bax-Bak DKO cells, FIG. 8B): significantly induced cell death | cell death ([3]; 5 μM, annexin V flow cytometry, Bax-Bak DKO MEFs): ~80% | pIC50 [4]: 4.79 | SERCA1A pump inhibition [5]: inhibited by pomiferin in a dose-dependent manner | pIC50 [6]: 4.72 | pIC50 [7]: 5.40

Source: patent publication US20170014375A1, “PHARMACEUTICAL COMPOSITION COMPRISING EFFECTIVE DOSE OF POMIFERIN FOR TREATING CANCERS” (Macau University of Science and Technology, priority 2015, published 2017)
